The subject of the assay is P388 leukemia ip, CD2F1 mice, survival T/C. The experiment in a line: NCI In Vivo Anticancer Drug Screen. Data for tumor model P388 Leukemia (intraperitoneal) in CD2F1 (CDF1) mice. Conditions: endpoint: median survival time, higher = longer survival. The procedure, abridged: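 Mice carrying the transplanted tumor received test compound or vehicle. Survival was recorded in each group, and the value is the treated-group measurement divided by that of the vehicle-treated control group.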

Where [1] appears, read: dose: 50.0 mg/kg/injection, schedule: Q01DX009 (ip), vehicle: Klucel (hydroxypropylcellulose) (HPC).
Setting [2] is: dose: 100.0 mg/kg/injection, schedule: Q04DX003 (ip), vehicle: saline with Tween-80.
Where [3] appears, read: dose: 200.0 mg/kg/injection, schedule: Q04DX003 (ip), vehicle: saline with Tween-80.
[4] abbreviates: dose: 50.0 mg/kg/injection, schedule: Q01DX009 (ip), vehicle: saline.
The mark [5] stands for this setting: dose: 100.0 mg/kg/injection, schedule: Q01DX009 (ip), vehicle: saline.
The mark [6] stands for this setting: dose: 200.0 mg/kg/injection, schedule: Q01DX009 (ip), vehicle: saline.
Setting [7] is: dose: 50.0 mg/kg/injection, schedule: Q01DX005 (ip), vehicle: saline with Tween-80.
[8] abbreviates: dose: 100.0 mg/kg/injection, schedule: Q01DX005 (ip), vehicle: saline with Tween-80.
[9] abbreviates: dose: 200.0 mg/kg/injection, schedule: Q01DX005 (ip), vehicle: saline with Tween-80.
Setting [10] is: dose: 50.0 mg/kg/injection, schedule: Q01DX009 (ip), vehicle: saline with Tween-80.
Setting [11] is: dose: 100.0 mg/kg/injection, schedule: Q01DX009 (ip), vehicle: saline with Tween-80.
[12] abbreviates: dose: 12.5 mg/kg/injection, schedule: Q01DX009 (ip), vehicle: saline with Tween-80.
[13] abbreviates: dose: 25.0 mg/kg/injection, schedule: Q01DX009 (ip), vehicle: saline with Tween-80.
The mark [14] stands for this setting: dose: 50.0 mg/kg/injection, schedule: Q01DX005 (ip), vehicle: Klucel (hydroxypropylcellulose) (HPC).
The mark [15] stands for this setting: dose: 100.0 mg/kg/injection, schedule: Q01DX005 (ip), vehicle: Klucel (hydroxypropylcellulose) (HPC).

Inconclusive results and toxic doses are left out.

As to `C=C1CC(O)C2C(=C)C(=O)OC2C2C(C)C(=O)CC12` (centres undefined), the T/C is 112 % of control (dose: 6.25 mg/kg/injection, schedule: Q01DX009 (ip), vehicle: Klucel (hydroxypropylcellulose) (HPC)); 107 % of control (dose: 12.5 mg/kg/injection, schedule: Q01DX009 (ip), vehicle: Klucel (hydroxypropylcellulose) (HPC)); 115 % of control (dose: 25.0 mg/kg/injection, schedule: Q01DX009 (ip), vehicle: Klucel (hydroxypropylcellulose) (HPC)); 116 % of control under setting [1].

Regarding `COC(=O)/C=N/NS(=O)(=O)c1ccc(C)cc1`, the T/C is, setting by setting: (dose: 12.5 mg/kg/injection, schedule: Q01DX009 (ip), vehicle: other) 102 % of control; (dose: 25.0 mg/kg/injection, schedule: Q01DX009 (ip), vehicle: other) 102 % of control; (dose: 50.0 mg/kg/injection, schedule: Q01DX009 (ip), vehicle: other) 100 % of control; (dose: 100.0 mg/kg/injection, schedule: Q01DX009 (ip), vehicle: other) 100 % of control.

Regarding `[I][Hg][CH2]C1OCCOC1[CH2][Hg][I]` (centres undefined), the T/C is 118 % of control under setting [2]; 118 % of control under setting [3]; 90 % of control (dose: 400.0 mg/kg/injection, schedule: Q04DX003 (ip), vehicle: saline with Tween-80).

As for `O=c1c(Cc2ccc(Cl)cc2)coc2ccccc12`, the T/C is, setting by setting: (dose: 60.0 mg/kg/injection, schedule: Q01DX005 (ip), vehicle: saline with Tween-80) 94 % of control; (dose: 120.0 mg/kg/injection, schedule: Q01DX005 (ip), vehicle: saline with Tween-80) 94 % of control; (dose: 240.0 mg/kg/injection, schedule: Q01DX005 (ip), vehicle: saline with Tween-80) 101 % of control.

Regarding `CC(=O)NC(Cc1ccccc1F)C(=O)O` (centres undefined), the T/C was 94 % of control under setting [4], 94 % of control under setting [5] and 97 % of control under setting [6].

`CC[N+](C)(C)c1ccc(C(=C2C=CC(=[N+](C)C)C=C2)c2ccc(N(C)C)cc2)cc1`: the T/C is, setting by setting: (dose: 3.12 mg/kg/injection, schedule: Q01DX005 (ip), vehicle: saline) 100 % of control; (dose: 6.25 mg/kg/injection, schedule: Q01DX005 (ip), vehicle: saline) 100 % of control; (dose: 12.5 mg/kg/injection, schedule: Q01DX005 (ip), vehicle: saline) 104 % of control.

Turning to `O=c1ccc2ccc3occc(=O)c3c2o1`, the T/C is 106 % of control under setting [7], 108 % of control under setting [8] and 98 % of control under setting [9].

For the compound `O=c1oc2c(cc1Cl)CCc1ccccc1-2`, the T/C by setting is: under setting [7], 104 % of control; under setting [8], 102 % of control; under setting [9], 97 % of control.

As to `CCOC(CNCc1cc(C)c2[nH]c3ccccc3c2c1C)OCC`, the T/C runs as follows: under setting [7], 100 % of control; under setting [8], 102 % of control; under setting [9], 110 % of control.

For the compound `N=C1N=Nc2nc(C3(c4nc5n(c4O)C(=N)N=N5)Cc4ccccc4C3=O)c(O)n21` (centres undefined), the T/C (dose: 60.0 mg/kg/injection, schedule: Q01DX005 (ip), vehicle: saline) is 96 % of control; the T/C (dose: 120.0 mg/kg/injection, schedule: Q01DX005 (ip), vehicle: saline) is 103 % of control; the T/C (dose: 240.0 mg/kg/injection, schedule: Q01DX005 (ip), vehicle: saline) is 108 % of control.

For the compound `Fc1ccccc1C(Nc1ncccn1)Nc1ncccn1`, the T/C is, setting by setting: under setting [10], 88 % of control; under setting [4], 94 % of control; under setting [11], 87 % of control; under setting [5], 99 % of control; (dose: 200.0 mg/kg/injection, schedule: Q01DX009 (ip), vehicle: saline with Tween-80) 87 % of control; under setting [6], 94 % of control.

Regarding `Cc1nnc2c(N)nccn12`, the T/C runs as follows: (dose: 100.0 mg/kg/injection, schedule: Q01DX001 (ip), vehicle: Klucel (hydroxypropylcellulose) (HPC)) 94 % of control; (dose: 200.0 mg/kg/injection, schedule: Q01DX001 (ip), vehicle: Klucel (hydroxypropylcellulose) (HPC)) 96 % of control.

Regarding `N#Cc1ccc([N+](=O)[O-])o1`, the T/C reads like this: under setting [12], 100 % of control; under setting [13], 90 % of control; under setting [10], 95 % of control.

For the compound `Oc1ccccc1CNCc1ccccc1O`, the T/C under setting [12] is 100 % of control, the T/C under setting [13] was 100 % of control, the T/C under setting [10] was 108 % of control and the T/C under setting [11] is 98 % of control.

Take `CCn1nc(C(=O)O)c(=O)c2cc3c(cc21)OCO3`: the T/C is, setting by setting: under setting [1], 96 % of control; (dose: 100.0 mg/kg/injection, schedule: Q01DX009 (ip), vehicle: Klucel (hydroxypropylcellulose) (HPC)) 97 % of control; (dose: 200.0 mg/kg/injection, schedule: Q01DX009 (ip), vehicle: Klucel (hydroxypropylcellulose) (HPC)) 98 % of control.

`O=C1c2ccccc2-c2cn(-c3ccccc3)c3cccc1c23`: the T/C by setting is: under setting [14], 103 % of control; under setting [15], 100 % of control.

As for `CC(C)C12CCC3(C)CCC1(C)CCC32O` (centres undefined), the T/C (dose: 12.0 mg/kg/injection, schedule: Q01DX009 (ip), vehicle: Klucel (hydroxypropylcellulose) (HPC)) was 111 % of control; the T/C (dose: 24.0 mg/kg/injection, schedule: Q01DX009 (ip), vehicle: Klucel (hydroxypropylcellulose) (HPC)) is 96 % of control; the T/C (dose: 48.0 mg/kg/injection, schedule: Q01DX009 (ip), vehicle: Klucel (hydroxypropylcellulose) (HPC)) is 96 % of control; the T/C (dose: 96.0 mg/kg/injection, schedule: Q01DX009 (ip), vehicle: Klucel (hydroxypropylcellulose) (HPC)) was 111 % of control.

As for `CC(O)CN(CCN(CC(C)O)CC(C)O)CC(C)O.[Cl-].[Zn+2]` (centres undefined), the T/C is 117 % of control (dose: 12.5 mg/kg/injection, schedule: Q01DX009 (ip), vehicle: saline) and 122 % of control (dose: 25.0 mg/kg/injection, schedule: Q01DX009 (ip), vehicle: saline).

Take `COc1cc(/C=N\NC(=O)OC(C)(C)C)cc(OC)c1OC`: the T/C by setting is: (dose: 50.0 mg/kg/injection, schedule: Q04DX003 (ip), vehicle: saline with Tween-80) 100 % of control; under setting [2], 91 % of control; under setting [3], 91 % of control.

Regarding `CNP(=O)(N(C)C)N(C)C`, the T/C is 96 % of control under setting [4], 98 % of control under setting [5] and 106 % of control under setting [6].

Regarding `Cc1c(-c2ccccc2)ccnc1/C=N/NC(=S)Nc1ccc(N(C)C)cc1`, the T/C runs as follows: (dose: 3.12 mg/kg/injection, schedule: Q01DX009 (ip), vehicle: saline with Tween-80) 119 % of control; (dose: 6.25 mg/kg/injection, schedule: Q01DX009 (ip), vehicle: saline with Tween-80) 153 % of control.

Regarding `CC[C@H]1OC(=O)[C@H](C)[C@@H](OC2CC(C)(OC)C(O)C(C)O2)[C@H](C)[C@@H](OC2OC(C)CC(N(C)C)C2OC(=O)CCC2CCCC2)[C@](C)(O)C[C@@H](C)C(=O)[C@H](C)[C@@H](O)[C@]1(C)O` (some centres undefined), the T/C was 96 % of control under setting [14]; 100 % of control under setting [15]; 93 % of control (dose: 200.0 mg/kg/injection, schedule: Q01DX005 (ip), vehicle: Klucel (hydroxypropylcellulose) (HPC)).

Consider `C=C1C(=O)O[C@H]2[C@@H]3O[C@@H]3C[C@@H]12`, for which the T/C is 105 % of control (dose: 1.56 mg/kg/injection, schedule: Q01DX009 (ip), vehicle: water); 97 % of control (dose: 3.13 mg/kg/injection, schedule: Q01DX009 (ip), vehicle: water); 99 % of control (dose: 6.25 mg/kg/injection, schedule: Q01DX009 (ip), vehicle: water); 100 % of control (dose: 12.5 mg/kg/injection, schedule: Q01DX009 (ip), vehicle: water); 109 % of control (dose: 25.0 mg/kg/injection, schedule: Q01DX009 (ip), vehicle: water).

For `O=[N+]([O-])c1cc2c([N+](=O)[O-])cccc2o1`, the T/C was 102 % of control (dose: 100.0 mg/kg/injection, schedule: Q04DX003 (ip), vehicle: Klucel (hydroxypropylcellulose) (HPC)) and 103 % of control (dose: 200.0 mg/kg/injection, schedule: Q04DX003 (ip), vehicle: Klucel (hydroxypropylcellulose) (HPC)).

Turning to `O=C(O)C(=Cc1cccc2ccccc12)C(=O)O`, the T/C (dose: 25.0 mg/kg/injection, schedule: Q01DX005 (ip), vehicle: Klucel (hydroxypropylcellulose) (HPC)) was 89 % of control; the T/C under setting [14] is 100 % of control; the T/C under setting [15] is 89 % of control.

The values are drawn from PubChem BioAssay AID330 (DTP/NCI, 2004).
